Read-outs that look alike come from different tables or passages of the source.
Tests used:
cytidine deaminase (CDA) [1] = target: T1, cytidine deaminase (CDA) (Homo sapiens (Human), UniProt P32320); assay: Effect of ER-876437 on the half-life of cytarabine in the presence of CDA in Tris-HCl buffer at 37° C.
cytidine deaminase (CDA) [2] = target: T1, cytidine deaminase (CDA); assay: Effect of ER-876437 on the half-life of gemcitabine in the presence of CDA in Tris-HCl buffer at 37° C.; type: biochemical
Experimental: This Example employed a Phenomenex Luna C18(2) HPLC column (100 Å 4.6×250 mm 5 μm). The solvent delivery system employed an HPLC quaternary pump, low pressure mixing. An autosampler having a variable loop, 0.1 to 100 μL range and temperature controlled thermostat was used. The UV detector can employ a dual wavelength detector, a diode array detector, a variable wavelength detector or equivalent, and can be recorded using chromatographic software (e.g., Waters Empower 2 Build 2154, Agilent ChemStation software version A.09.03 or higher for HPLC or equivalent). The analytical balance employed was capable of weighing ±0.1 mg. Degassed HPLC grade water and degassed HPLC grade acetonitrile were used as solvents for the mobile phases.
Gemcitabine Standard Control: 0.2 mM gemcitabine control was prepared by weighing […] of gemcitabine in a 10 mL volumetric flask. […] Solution was labeled as gemcitabine stock solution.

[3] = system: A2780 human ovarian cancer xenograft; assay: In vivo efficacy study in A2780 human ovarian cancer xenograft model; set-up: species or system female nude mice; settings: qdx5 for two weeks
Experimental: Animals were dosed daily from Monday to Friday for two weeks.
Female nude mice (NU/NU, strain code 088, 6 weeks old, Charles River Laboratory) were implanted subcutaneously with 5×10^6 A2780 cancer cells per mouse. On day 13 when the tumors were approximately 150 mm^3, treatment started as described in Table 9.
Tumor volume and regressions were followed over time. Tumor volume was calculated by (length×width^2)/2. Note that a complete regression was defined as no measurable tumor for at least 3 consecutive measurements; while a partial regression was defined as tumor shrinkage to equal or less than 50% of original tumor volume for 3 consecutive measurements. Tumor growth delay (TGD) was defined as the median number of days for the control and treatment groups to grow to 342.14 mm^3. The average tumor volume on the first day of treatment (day 13) is 171.07 mm^3.

cytidine deaminase (CDA) [4] = target: T1, cytidine deaminase (CDA); assay: Effect of ER-876437 on the half-life of decitabine in the presence of CDA in Tris-HCl buffer at 37° C.; type: biochemical
Experimental: The solvent delivery system employed an HPLC quaternary pump, low pressure mixing. An autosampler having a variable loop, 0.1 to 100 μL range and temperature controlled thermostat was used. […] Degassed HPLC grade water and degassed HPLC grade acetonitrile were used as solvents for the mobile phases. […] [table]

[5] = Pharmacokinetics in mice after IV and PO administrations; type: in vivo, male BALB-c mice; settings: for concentration at 0.167 hr / concentration at 0.5 hr / concentration at 1 hr / concentration at 2 hr / concentration at 4 hr / concentration at 6 hr / concentration at 8 hr / concentration at 24 hr: read-out: Plasma concentrations
Experimental: […]. All doses were prepared in phosphate buffered saline (PBS) and were administered at a volume of 5 mL/kg. Five mice per group were used in these studies. Blood samples were taken serially from the tail vein of each mouse at predetermined timepoints. Blood samples from all mice in each group were pooled together prior to processing for plasma. The pooled blood samples were spun down within 30-60 minutes after withdrawal and the plasma was harvested and frozen for assay. After preparation and extraction the samples were assayed by LC/MS/MS.

[6] = ER-876437 1.0 mg/kg/Veh, on autopsy
[7] = male, BALB-c, mouse, plasma, 10 mg/kg IV
[8] = male, BALB-c, mouse, plasma, 10 mg/kg PO

T1 sequence (P32320 whole entry): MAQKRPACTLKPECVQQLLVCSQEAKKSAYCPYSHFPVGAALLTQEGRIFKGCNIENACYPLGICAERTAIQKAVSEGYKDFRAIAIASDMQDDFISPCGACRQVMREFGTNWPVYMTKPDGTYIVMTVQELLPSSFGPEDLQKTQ
Experimental for murine lymphoma L1210: Preparation of L1210 Cells: L1210 ascitic cells were prepared by passaging them in mice at least three times as follows. Each CD2F1 female mouse was intraperitoneally (IP) injected with about 10^5 L1210 ascitic cells. After one week, the mouse was sacrificed (asphyxiation via CO2). The mouse was placed on its back, its belly surface was cleaned with alcohol wipes, and a small incision was made into the peritoneal cavity. […] Diluted ascites (diluted 1:10 again) were counted on a hematocytometer and the number of cells per mL was calculated. About 10^5 L1210 cells were used for a subsequent passage for another mouse passage. Or, a stock of L1210 ascites in BSA solution was diluted to 1×10^4 cells/0.1 ml for use in the study mice.
The mice were prepared with intravenous (IV) injection of L1210 ascites (prepared as described above) one day prior to commencing the dosing. […] The total IV injection for all mice took about 50 minutes.
Decitabine was prepared fresh twice a day, just prior to dosing. All solutions were stored on ice while dosing. Mice were dosed (intraperitoneally (IP) or per os (orally, PO)) twice a day (8 hours apart) for 4 consecutive days.
Dead mice were autopsied and observed for the presence of tumors in organs.
Preparation of study mice with IV injection of L1210 ascites took about 60 minutes. […] All solutions were stored on ice while dosing. Mice were dosed (IP or PO) twice a day (7 or 8 hours apart) for 4 consecutive days.

With `O=C1NCC=CCN1[C@@H]1O[C@H](CO)[C@@H](O)C1(F)F` [ER-876437, 1-((2R,4R,5R)-3,3-difluoro-4-hydroxy-5-(hydroxymethyl)tetrahydrofuran-2-yl)-3,4-dihydro-1H-1,3-diazepin-2(7H)-one] the cytarabine remaining (cytidine deaminase (CDA) [1]; CDA plus ER-876437 in the incubation mixture, after 52 h) was “greater than 95%”, the “inhibition of the effect of CDA on T1/2 of cytarabine” value (cytidine deaminase (CDA) [1]; Tris-HCl buffer at 37° C.) was “nearly completely inhibited” and the “levels of ER-876437” value (cytidine deaminase (CDA) [1]; after 52 hours of exposure to CDA with cytarabine) was “not affected”. The gemcitabine remaining (cytidine deaminase (CDA) [2]; CDA plus ER-876437 in the incubation mixture, after 7 h) was “greater than 95%”, the “inhibition of the effect of CDA on T1/2 of gemcitabine” value (cytidine deaminase (CDA) [2]; Tris-HCl buffer at 37° C.) was “nearly completely inhibited” and the “levels of ER-876437” value (cytidine deaminase (CDA) [2]; after 7 hours of exposure to CDA with gemcitabine) was “not affected”. The “regressions or tumor free survivors at day 41” value ([3]; gemcitabine 1 mg/kg PO alone or ER-876437 10 mg/kg PO alone) was “no regressions or tumor free survivors”, the “effect on tumor growth (FIG. 3)” value ([3]; gemcitabine 1 mg/kg PO and/or ER-876437 10 mg/kg PO (30 minutes prior)) was “no effect at all” and the “TGD (tumor growth delay)” value ([3]; gemcitabine 1 mg/kg PO and/or ER-876437 10 mg/kg PO (30 minutes prior), delay vs vehicle to reach 342.14 mm^3) was 2 days. For the same compound, the “Mean Liver wts (g) ± SD” value (murine lymphoma L1210; [6]) was 2.04 ± 0.15 g, the “Mean Spleen wts (g) ± SD” value (murine lymphoma L1210; [6]) was 0.32 ± 0.02 g and the “Mean Survival (days) ± SD” value (murine lymphoma L1210; ER-876437 1.0 mg/kg/Veh, twice a day (7 hours apart), 4 days) was 8.4 ± 0.55 days. The “% ILS (Increased Life Span)” value (murine lymphoma L1210; ER-876437 1.0 mg/kg/Veh, vs vehicle group) was 5.00%, the minimally effective dose (murine lymphoma L1210; with 0.1 mg/kg decitabine PO, L1210 survival model) was 0.1 mg/kg and the “inhibition of the effect of CDA on T1/2 of decitabine” value (cytidine deaminase (CDA) [4]; Tris-HCl buffer at 37° C.) was “nearly completely inhibited”. For the same compound, the “levels of ER-876437” value (cytidine deaminase (CDA) [4]; after 12 hours exposure to CDA with decitabine) was “not affected”, the “t1/2 after PO administration relative to IV administration” value ([5]; 10 mg/kg) was “roughly 2.5 fold” and the “AUC0-∞” value ([5]; 10 mg/kg IV) was 13071 ng·h/mL. The “AUC0-∞/D” value ([5]; 10 mg/kg IV) was 1307 ng · hr/mL/D, the AUCExtrap ([5]; 10 mg/kg IV) was 1.4% and the CL ([5]; 10 mg/kg IV) was 12.8 mL/min/kg. For the same compound, the dose-normalized exposures (AUC0-∞) ([5]; 10 mg/kg IV) was 1310 ng·h/mL per mg/kg, the t1/2 ([5]; 10 mg/kg IV) was 6.1 h and the “AUC0-∞” value ([5]; 10 mg/kg PO) was 9499 ng·h/mL. The “AUC0-∞/D” value ([5]; 10 mg/kg PO) was 950 ng · hr/mL/D, the AUC(0-t) ([5]; 10 mg/kg PO) was 8579 ng·h/mL and the AUCExtrap ([5]; 10 mg/kg PO) was 9.7%. For the same compound, the t1/2 ([5]; 10 mg/kg PO) was 16.3 h, the AUC(0-inf) [5, 7] was 13100 ng·h/mL and the clearance [5, 7] was 12.8 mL/min/kg. The half-life [5, 7] was 6.1 h, the concentration at 0.167 hr [5, 7] was 11800 ng/mL and the concentration at 0.5 hr [5, 7] was 7690 ng/mL. For the same compound, the concentration at 1 hr [5, 7] was 3470 ng/mL, the concentration at 2 hr [5, 7] was 1450 ng/mL and the concentration at 4 hr [5, 7] was 214 ng/mL. The concentration at 6 hr [5, 7] was 184 ng/mL, the concentration at 8 hr [5, 7] was 64 ng/mL and the concentration at 24 hr [5, 7] was 20 ng/mL. It also gave an AUC(0-t) ([5]; male, BALB-c, mouse, plasma, 10 mg/kg IV, read-out: AUC0-t) of 12900 ng·h/mL, a Vd ([5]; male, BALB-c, mouse, plasma, 10 mg/kg IV, read-out: Vss) of 1.64 L/kg and an AUC(0-inf) [5, 8] of 9500 ng·h/mL. For the same compound, the Cmax [5, 8] was 8600 ng/mL, the half-life [5, 8] was 16.3 h and the bioavailability ([5]; male, BALB-c, mouse, plasma, 10 mg/kg PO vs IV, calculated based on AUC0-t, read-out: F (bioavailability)) was 66.5%. It also gave a concentration at 0.167 hr [5, 8] of 8600 ng/mL, a concentration at 0.5 hr [5, 8] of 3720 ng/mL and a concentration at 1 hr [5, 8] of 4180 ng/mL. For the same compound, the concentration at 2 hr [5, 8] was 1140 ng/mL, the concentration at 4 hr [5, 8] was 146 ng/mL and the concentration at 6 hr [5, 8] was 36 ng/mL. It also gave a concentration at 8 hr [5, 8] of 103 ng/mL, a concentration at 24 hr [5, 8] of 39 ng/mL and an AUC(0-t) ([5]; male, BALB-c, mouse, plasma, 10 mg/kg PO, read-out: AUC0-t) of 8580 ng·h/mL.

Source: US9040501B2, “Compositions and methods for treating cancer” (Eisai Inc., priority 2009, dated 2015)
